The values that follow come from patent publication US12516046B2, “2-oxo-oxazolidine-5-carboxamides as NAV1.8 inhibitors” (Merck Sharp & Dohme LLC, priority 2020, dated 2026).

For this assay, the target named is human Nav1.8 (Homo sapiens (Human), UniProt Q9Y5Y9). The assay can be described thus: Nav1.8 Qube® Assay (automated 384-well patch-clamp). As to conditions: human Nav1.8 channels stably expressed in HEK 293 cells. The class given is cell-based. An excerpt: Qube® Assay Experimental Procedure
Chain of human Nav1.8 (Q9Y5Y9 whole entry): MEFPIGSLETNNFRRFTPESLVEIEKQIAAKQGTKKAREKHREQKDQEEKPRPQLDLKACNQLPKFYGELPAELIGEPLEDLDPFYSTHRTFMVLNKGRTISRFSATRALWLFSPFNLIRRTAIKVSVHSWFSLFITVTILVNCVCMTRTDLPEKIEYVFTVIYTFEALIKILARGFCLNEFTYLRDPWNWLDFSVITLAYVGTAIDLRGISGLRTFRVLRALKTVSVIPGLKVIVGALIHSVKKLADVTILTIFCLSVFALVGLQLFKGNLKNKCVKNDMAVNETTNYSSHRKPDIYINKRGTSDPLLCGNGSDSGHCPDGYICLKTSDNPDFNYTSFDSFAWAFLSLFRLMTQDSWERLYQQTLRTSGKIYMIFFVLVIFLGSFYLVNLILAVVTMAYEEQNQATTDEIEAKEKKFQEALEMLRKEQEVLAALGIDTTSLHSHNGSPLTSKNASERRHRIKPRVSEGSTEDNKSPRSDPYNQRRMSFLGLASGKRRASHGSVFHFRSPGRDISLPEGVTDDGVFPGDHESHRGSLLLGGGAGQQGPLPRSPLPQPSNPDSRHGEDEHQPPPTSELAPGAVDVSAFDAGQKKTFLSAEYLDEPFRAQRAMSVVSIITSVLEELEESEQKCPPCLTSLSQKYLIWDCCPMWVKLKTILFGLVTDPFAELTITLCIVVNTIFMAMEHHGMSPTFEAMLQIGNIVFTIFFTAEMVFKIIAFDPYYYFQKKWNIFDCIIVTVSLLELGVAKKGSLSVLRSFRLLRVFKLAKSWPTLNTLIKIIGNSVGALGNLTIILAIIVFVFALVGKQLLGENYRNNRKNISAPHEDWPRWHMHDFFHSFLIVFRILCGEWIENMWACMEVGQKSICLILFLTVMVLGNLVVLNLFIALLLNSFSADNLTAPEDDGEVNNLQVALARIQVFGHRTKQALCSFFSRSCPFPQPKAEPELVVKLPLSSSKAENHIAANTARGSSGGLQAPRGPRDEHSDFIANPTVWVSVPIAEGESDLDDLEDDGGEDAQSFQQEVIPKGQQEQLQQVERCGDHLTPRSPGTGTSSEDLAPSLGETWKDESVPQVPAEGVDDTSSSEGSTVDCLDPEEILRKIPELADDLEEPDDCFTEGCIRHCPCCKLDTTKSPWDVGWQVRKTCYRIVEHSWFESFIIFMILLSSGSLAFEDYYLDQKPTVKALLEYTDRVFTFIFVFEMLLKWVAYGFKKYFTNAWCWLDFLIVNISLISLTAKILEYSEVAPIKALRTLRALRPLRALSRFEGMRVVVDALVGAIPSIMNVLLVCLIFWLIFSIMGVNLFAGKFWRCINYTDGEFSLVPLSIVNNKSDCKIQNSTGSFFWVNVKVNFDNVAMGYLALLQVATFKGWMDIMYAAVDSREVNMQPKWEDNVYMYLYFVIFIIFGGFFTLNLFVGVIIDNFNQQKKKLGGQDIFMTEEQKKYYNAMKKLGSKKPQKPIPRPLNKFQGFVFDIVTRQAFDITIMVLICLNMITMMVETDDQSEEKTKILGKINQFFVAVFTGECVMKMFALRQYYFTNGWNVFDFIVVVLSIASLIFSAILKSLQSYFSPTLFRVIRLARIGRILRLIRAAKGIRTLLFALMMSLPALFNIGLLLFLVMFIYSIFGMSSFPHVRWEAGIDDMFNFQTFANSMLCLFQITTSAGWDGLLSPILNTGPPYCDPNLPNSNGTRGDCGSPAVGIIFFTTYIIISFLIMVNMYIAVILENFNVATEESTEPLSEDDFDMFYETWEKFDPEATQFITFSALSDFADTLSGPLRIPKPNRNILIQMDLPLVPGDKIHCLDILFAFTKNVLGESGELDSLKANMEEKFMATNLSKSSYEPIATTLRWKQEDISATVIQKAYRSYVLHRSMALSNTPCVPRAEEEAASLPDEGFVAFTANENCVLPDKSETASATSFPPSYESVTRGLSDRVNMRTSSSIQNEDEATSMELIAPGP
Molecule `O=C1NC[C@@H](C(=O)NC(c2ccc(F)c(Cl)c2F)[C@@H]2C[C@@H]3[C@H](C2)C3(F)F)O1` (single isomer, unassigned) [Example 74A, (S)-N-((R or S)-(3-chloro-2,4-difluorophenyl) ((trans)-6,6-difluorobicyclo[3.1.0]hexan-3-yl)methyl)-2-oxooxazolidine-5-carboxamide] yielded a concentration for half-maximal inhibition (IC50) of 11 nM.
Molecule `O=C1NC[C@@H](C(=O)NC(c2ccc(F)c(Cl)c2F)[C@@H]2C[C@@H]3[C@H](C2)C3(F)F)O1` (single isomer, unassigned) [Example 74B, (S)-N-((R or S)-(3-chloro-2,4-difluorophenyl) ((trans)-6,6-difluorobicyclo[3.1.0]hexan-3-yl)methyl)-2-oxooxazolidine-5-carboxamide] yielded an IC50 of 389 nM.
`O=C1NC[C@@H](C(=O)NC(c2ccc(F)c(Cl)c2)c2ccc(F)c(Cl)c2)O1` [Example 10, (S)-N-(bis(3-chloro-4-fluorophenyl)methyl)-2-oxooxazolidine-5-carboxamide] had an IC50 of 0.7 nM. Compared with the last molecule, the IC50 is about 560-fold lower.
In turn, `O=C1NC[C@@H](C(=O)NC(c2ccccc2)c2cc(Cl)cc(Cl)c2)O1` (stereo partly drawn) [Example 20, (5S)-N-((3,5-dichlorophenyl) (phenyl)methyl)-2-oxooxazolidine-5-carboxamide] gave an IC50 of 32 nM.
For the molecule `O=C1NC[C@@H](C(=O)NC(c2ccccc2)C2C3CC4CC(C3)CC2C4)O1` (stereo partly drawn) [Example 21, (5S)-N-((adamantan-2-yl)(phenyl)methyl)-2-oxooxazolidine-5-carboxamide], the IC50 stood at 293 nM.
With `O=C1NC[C@@H](C(=O)NC(c2ccc(Cl)cc2)c2cccs2)O1` (stereo partly drawn) [Example 24, (5S)-N-((4-chlorophenyl)(thio-phen-2-yl)methyl)-2-oxooxazolidine-5-carboxamide], the IC50 was found to be 144 nM. Against the preceding molecule, the IC50 is about 2-fold lower.
For `CS(=O)(=O)c1cccc(C(NC(=O)[C@@H]2CNC(=O)O2)c2ccc(Cl)cc2)c1` (stereo partly drawn) [Example 27, (5S)-N-((4-chlorophenyl)(3-(methylsulfonyl)phenyl)methyl)-2-oxooxazolidine-5-carboxamide] the value was 705 nM.
`O=C1NC[C@@H](C(=O)NC(c2ccc(Cl)cc2)c2cccc3ccccc23)O1` (stereo partly drawn) [Example 30, (5S)-N-((4-chlorophenyl) (naphthalen-1-yl)methyl)-2-oxooxazolidine-5-carboxamide] displayed a 50% inhibitory concentration (IC50) of 2.4 nM.
Take `O=C1NC[C@@H](C(=O)NC(c2ccc(Cl)cc2)c2ccc3ccccc3c2)O1` (stereo partly drawn) [Example 31, (5S)-N-((4-chlorophenyl) (naphthalen-2-yl)methyl)-2-oxooxazolidine-5-carboxamide]: the half-inhibitory concentration (IC50) turned out to be 3.9 nM.
Take `O=C1NC[C@@H](C(=O)NC(c2ccc(Cl)cc2)c2ccnc(C(F)(F)F)c2)O1` (stereo partly shown) [Example 34]: the IC50 worked out at 94 nM.
`O=C1NC[C@@H](C(=O)NC(c2ccc(Cl)cc2)c2ccc(OC(F)F)nc2)O1` (stereo partly drawn) [Example 36, (5S)-N-((4-chlorophenyl)(6-(difluoromethoxy)pyridin-3-yl)methyl)-2-oxooxazolidine-5-carboxamide] came in with an IC50 of 69 nM.
`O=C1NC[C@@H](C(=O)NC(c2ccc(F)c(Cl)c2)c2ccc(F)c(C(F)(F)F)n2)O1` (stereo partly drawn) [Example 38, (5S)-N-((3-chloro-4-fluorophenyl)(5-fluoro-6-(trifluoromethyl)pyridin-2-yl)methyl)-2-oxooxazolidine-5-carboxamide] yielded a 50% inhibitory concentration (IC50) of 2.1 nM.
The same measure for `O=C1NC[C@@H](C(=O)NC(c2ccc(Cl)cc2)c2nc(C(F)(F)F)c[nH]2)O1` (stereo partly drawn) [Example 40, (5S)-N-((4-chlorophenyl)(4-(trifluoromethyl)-1H-imidazol-2-yl)methyl)-2-oxooxazolidine-5-carboxamide]: 397 nM.
Turning to `CC(NC(=O)[C@@H]1CNC(=O)O1)(c1ccc(Cl)cc1)c1ccc(Cl)cc1` [Example 41, (S)-N-(1,1-bis(4-chlorophenyl)ethyl)-2-oxooxazolidine-5-carboxamide], the half-maximal inhibitory concentration (IC50) is 378 nM.
On to `O=C1NC[C@@H](C(=O)NC(c2ccc(Cl)cc2)C2CCCCCC2)O1` (stereo partly drawn) [Example 45, (5S)-N-((4-chlorophenyl)(cyclo-heptyl)methyl)-2-oxooxazolidine-5-carboxamide], for which the IC50 worked out at 87 nM. Compared with the last molecule, the IC50 is about 4.3-fold lower.
As for `O=C1NC[C@@H](C(=O)NC(c2ccc(C(F)(F)F)nc2)c2csc(C(F)(F)F)n2)O1` (stereo partly drawn) [Example 64, (5S)-2-oxo-N-((6-(trifluoromethyl)pyridin-3-yl)(2-(trifluoromethyl)thiazol-4-yl)methyl)oxazolidine-5-carboxamide], the concentration for half-maximal inhibition (IC50) is 129 nM.
The molecule `O=C1NC[C@@H](C(=O)NC(COc2ccc(C(F)(F)F)nc2)c2ccc(F)c(Cl)c2)O1` (stereo partly drawn) [Example 66, (5S)-N-(1-(3-chloro-4-fluorophenyl)-2-((6-(trifluoro-methyl)pyridin-3-yl)oxy)ethyl)-2-oxooxazolidine-5-carboxamide] had an IC50 of 268 nM.
Molecule `O=C1NC[C@@H](C(=O)NC(CC2CCCCC2)c2ccc(F)c(Cl)c2F)O1` (stereo partly drawn) [Example 67, (S)-N-(1-(3-chloro-2,4-difluorophenyl)-2-cyclohexylethyl)-2-oxooxazolidine-5-carboxamide] showed a 50% inhibitory concentration (IC50) of 21 nM. This IC50 is about 13-fold lower than that of the molecule before.
`O=C1NC[C@@H](C(=O)NC(Cc2ccc(Cl)cc2)c2ccc(OC(F)(F)F)cc2)O1` (stereo partly drawn) [Example 68, (5S)-N-(2-(4-chlorophenyl)-1-(4-(trifluoromethoxy)phenyl)ethyl)-2-oxooxazolidine-5-carboxamide] registered an IC50 of 246 nM. This IC50 lies about 12-fold higher than the previous one.

One may read the IC50 as the concentration that gives 50% inhibition.
